For assay [1], the target named is SREBP-2 (Homo sapiens (Human), UniProt Q12772). Description: In vitro assay SREBP-2: PathHunter U2OS SREBP-2 Nuclear Translocation Cell Line, U18666A-stimulated. The settings on record: PathHunter U2OS SREBP-2 nuclear translocation cells, U18666A 10 μM, overnight (16 hours). It counts as cell-based.
Assay [2] deals with LXRβ (Homo sapiens (Human), UniProt P55055). As to the kind of experiment: In vitro assay LXRβ: PathHunter NHR CHO cells, LXRβ / Steroid Receptor Co-activator Peptide enzyme fragment complementation. It counts as cell-based. As to conditions: PathHunter NHR CHO cells, full-length human LXRβ and SRCP, chemiluminescent signal; read-out: LXRβ PPI. The method, boiled down:
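Enzyme fragment complementation read-out: CHO cells stably expressing ProLink-tagged full-length human LXRβ plus nuclear enzyme acceptor–SRCP fusion, seeded and held overnight at 37° C. Medium with charcoal-dextran filtered serum; final vehicle 1%. Chemiluminescence measured after signal generation.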

Here are results for seven compounds from US20230340011A1 (Asteroid Therapeutics, priority 2022, published 2023).

A word on the IC50: it is the concentration that inhibits the measured activity by half.

SMILES strings stand for the structures.

Sequence of LXRβ (P55055 whole entry, the tested form may be a part): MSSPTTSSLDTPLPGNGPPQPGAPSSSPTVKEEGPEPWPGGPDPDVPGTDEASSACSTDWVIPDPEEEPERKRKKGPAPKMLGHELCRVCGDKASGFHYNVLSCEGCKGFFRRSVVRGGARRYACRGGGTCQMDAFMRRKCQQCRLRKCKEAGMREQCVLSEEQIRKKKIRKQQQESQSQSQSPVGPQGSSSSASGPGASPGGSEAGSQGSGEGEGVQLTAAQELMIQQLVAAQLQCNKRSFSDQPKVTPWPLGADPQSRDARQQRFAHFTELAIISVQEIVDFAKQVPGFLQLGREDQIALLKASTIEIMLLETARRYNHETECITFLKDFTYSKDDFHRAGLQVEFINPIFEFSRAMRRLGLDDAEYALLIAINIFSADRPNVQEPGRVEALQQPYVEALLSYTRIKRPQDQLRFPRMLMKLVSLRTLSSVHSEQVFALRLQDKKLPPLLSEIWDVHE

In assay [1], `COc1cccnc1N1CCN(C(=O)CC[C@@H](C)[C@H]2CC[C@H]3[C@@H]4CC=C5C[C@@H](O)CC[C@]5(C)[C@H]4CC[C@]23C)CC1` [Example 613, (R)-4-((3S,8S,9S,10R,13R,14S,17R)-3-hydroxy-10,13-dimethyl-2,3,4,7,8,9,10,11,12,13,14,15,16,17-tetradecahydro-1H-cyclopenta[a]phenanthren-17-yl)-1-(4-(3-methoxypyridin-2-yl)piperazin-1-yl)pentan-1-one] returned an IC50 of less than 0.25 µM. The EC50 in assay [2] was greater than 10 µM.
The like results for `COc1ncncc1N1CCN(C(=O)CC[C@@H](C)[C@H]2CC[C@H]3[C@@H]4CC=C5C[C@@H](O)CC[C@]5(C)[C@H]4CC[C@]23C)CC1` [Example 614, (4R)-4-[(1R,3aS,3bS,7S,9aR,9bS,11aR)-7-hydroxy-9a,11a-dimethyl-1H,2H,3H,3aH,3bH,4H,6H,7H,8H,9H,9aH,9bH,10H,11H,11aH-cyclopenta[a]phenanthren-1-yl]-1-[4-(4-methoxypyrimidin-5-yl)piperazin-1-yl]pentan-1-one] were, in that order, less than 0.25 µM and greater than 10 µM.
For `COc1cncnc1N1CCN(C(=O)CC[C@@H](C)[C@H]2CC[C@H]3[C@@H]4CC=C5C[C@@H](O)CC[C@]5(C)[C@H]4CC[C@]23C)C[C@@H]1C` [Example 615, (R)-4-((3S,8S,9S,10R,13R,14S,17R)-3-hydroxy-10,13-dimethyl-2,3,4,7,8,9,10,11,12,13,14,15,16,17-tetradecahydro-1H-cyclopenta[a]phenanthren-17-yl)-1-((S)-4-(5-methoxypyrimidin-4-yl)-3-methylpiperazin-1-yl)pentan-1-one] the same measures were less than 0.25 µM and greater than 10 µM.
For `COc1cncnc1N1CCN(C(=O)CC[C@@H](C)[C@H]2CC[C@H]3[C@@H]4CC=C5C[C@@H](O)CC[C@]5(C)[C@H]4CC[C@]23C)[C@@H](C)C1` [Example 616, (R)-4-((3S,8S,9S,10R,13R,14S,17R)-3-hydroxy-10,13-dimethyl-2,3,4,7,8,9,10,11,12,13,14,15,16,17-tetradecahydro-1H-cyclopenta[a]phenanthren-17-yl)-1-((S)-4-(5-methoxypyrimidin-4-yl)-2-methylpiperazin-1-yl)pentan-1-one] the same measures were less than 0.25 µM and greater than 10 µM.
In turn, `COc1ncc(OC)c(N2CCN(C(=O)CC[C@@H](C)[C@H]3CC[C@H]4[C@@H]5CC=C6C[C@@H](O)CC[C@]6(C)[C@H]5CC[C@]34C)CC2)n1` [Example 617, (R)-1-(4-(2,5-dimethoxypyrimidin-4-yl)piperazin-1-yl)-4-((3S,8S,9S,10R,13R,14S,17R)-3-hydroxy-10,13-dimethyl-2,3,4,7,8,9,10,11,12,13,14,15,16,17-tetradecahydro-1H-cyclopenta[a]phenanthren-17-yl)pentan-1-one] registered a 50% inhibitory concentration (IC50) in assay [1] of less than 0.25 µM. For the same compound, the EC50 in assay [2] was greater than 10 µM.
The like results for `COc1ncnc(N2CCN(C(=O)CC[C@@H](C)[C@H]3CC[C@H]4[C@@H]5CC=C6C[C@@H](O)CC[C@]6(C)[C@H]5CC[C@]34C)CC2)c1OC` [Example 618, (R)-1-(4-(5,6-dimethoxypyrimidin-4-yl)piperazin-1-yl)-4-((3S,8S,9S,10R,13R,14S,17R)-3-hydroxy-10,13-dimethyl-2,3,4,7,8,9,10,11,12,13,14,15,16,17-tetradecahydro-1H-cyclopenta[a]phenanthren-17-yl)pentan-1-one] were, in that order, less than 0.25 µM and greater than 10 µM.
For `C[C@H](CCC(=O)N1CCN(c2ncncc2C(F)(F)F)CC1)[C@H]1CC[C@H]2[C@@H]3CC=C4C[C@@H](O)CC[C@]4(C)[C@H]3CC[C@]12C` [Example 619, (R)-4-((3S,8S,9S,10R,13R,14S,17R)-3-hydroxy-10,13-dimethyl-2,3,4,7,8,9,10,11,12,13,14,15,16,17-tetradecahydro-1H-cyclopenta[a]phenanthren-17-yl)-1-(4-(5-(trifluoromethyl)pyrimidin-4-yl)piperazin-1-yl)pentan-1-one] the same measures were less than 0.25 µM and greater than 10 µM.
